# From patent US7776907B2, “Methods for the treatment and management of macular degeneration using cyclopropyl-N-{2-[(1S)-1-(3-ethoxy-4-methoxyphenyl)-2-(methylsulfonyl)ethyl]-3-oxoisoindoline-4-yl}carboxamide” (Celgene Corporation, priority 2002, dated 2010)
# How the values were obtained:
# [1] = system: laser-induced CNVM; conditions: intravitreal injection, monkeys; cited from earlier work
# [2] = system: patients with MD; conditions: intravitreal injection, one-year period, randomized trial; cited from earlier work
# [3] = system: MD; conditions: cited from earlier work
# [4] = animal models; cited from earlier work
# [5] = system: patients with macular degeneration; assay: Clinical study in patients with macular degeneration, adjuvant to photodynamic therapy with verteporfin; assay type: in vivo, human; conditions: about 20 mg/day as adjuvant to verteporfin photodynamic therapy for 20 weeks
# Description: Selective cytokine inhibitory drugs of the invention are administered in an amount of about 20 to about 1,200 mg per day to patients with macular degeneration. In a specific embodiment, clinical studies are performed with forty patients with macular degeneration, who are divided into two groups. The first group receives conventional treatment for closing the leaking choroidal vessels (characteristic of this disease) by photodynamic therapy with verteporfin. Ophthalmol 1999 (117): 1329-1345. The second group receives the same conventional therapy with verteporfin and (+)-2-[1-(3-ethoxy-4 methoxy-phenyl)-2-methylsulfonylethyl]-4 acetylaminoisoindoline 1,3-dione in an amount of about 20 mg/day as an adjuvant for 20 weeks.
# However, the first group without (+)-2-[1-(3-ethoxy-4 methoxyphenyl)-2-methylsulfonylethyl]-4 acetylaminoisoindoline 1,3-dione experiences progressive reperfusion of the ablated vessels several weeks after treatment. Progressive visual loss follows which requires the photodynamic therapy to be repeated.
# [6] = system: TNF-α production; assay: In vitro pharmacology studies: inhibition of TNF-α production following LPS-stimulation of human PBMC and human whole blood; assay type: cell-based; conditions: compared with thalidomide
# From the text: One of the biological effects typically exerted by selective cytokine inhibitory drugs is the reduction of synthesis of TNF-α. Specific selective cytokine inhibitory drugs enhance the degradation of TNF-α mRNA. TNF-α may play a pathological role in macular degeneration.
# In a specific embodiment, the pharmacological properties of 3-(3,4-dimethoxy-phenyl)-3-(1-oxo-1,3-dihydro-isoindol-2-yl)-propionamide are characterized in in vitro studies. Studies examine the effects of the compound on the production of various cytokines. Inhibition of TNF-α production following LPS-stimulation of human PBMC and human whole blood by the compound is investigated in vitro. […] The pharmacological effects of 3-(3,4-dimethoxy-phenyl)-3-(1-oxo-1,3-dihydro-isoindol-2-yl)-propionamide may derive from its action as an inhibitor of the generation of inflammatory cytokines.
molecule,measurement,setting,value
C[C@]12C=CC(=O)C=C1CC[C@H]1[C@@H]3C[C@@H](O)[C@](O)(C(=O)CO)[C@@]3(C)C[C@H](O)[C@@]12F [triamcinolone],growth of laser-induced CNVM,[1],inhibits the growth of laser-induced CNVM
same,prevention of severe visual loss,[2],fails to prevent severe visual loss
interferon-α,efficacy at treating MD,"[3]; clinical trial, Arch. Ophthalmol. 115:865-72 (1997)",ineffective at treating MD
same,adverse effects,"[3]; human, in vivo",high rate of adverse effects
verteporfin,accumulation in tissue,[4],also accumulates in the retina
"CCOc1cc(C(CS(C)(=O)=O)N2C(=O)c3cccc(NC(C)=O)c3C2=O)ccc1OC (single isomer, unassigned; (+)) [(+)-2-[1-(3-ethoxy-4 methoxyphenyl)-2-methylsulfonylethyl]-4 acetylaminoisoindoline 1,3-dione]",effect on neovascular cascade / duration of effects of photodynamic therapy,[5],neovascular cascade is sufficiently hindered
"COc1ccc(C(CC(N)=O)N2Cc3ccccc3C2=O)cc1OC (stereo not shown) [3-(3,4-Dimethoxy-phenyl)-3-(1-oxo-1,3-dihydro-isoindol-2-yl)-propionamide]","pharmacological activity profile, potency relative to thalidomide",[6],five to fifty times more potent than thalidomide
